Results published in ChEMBL document CHEMBL5653615 (J Biol Chem, 2013).

Legend:
[1] = target: MAP kinase-activated protein kinase 5 (Homo sapiens) (UniProt Q8IW41); experiment: Inhibition of human MAPKAPK5 at 500 nM by HotSpot assay relative to control
[2] = target: T1, Phosphorylase b kinase gamma catalytic chain, liver/testis isoform (Homo sapiens) (UniProt P15735); experiment: Inhibition of human PHKg2 at 500 nM by HotSpot assay relative to control
T1 sequence (whole entry): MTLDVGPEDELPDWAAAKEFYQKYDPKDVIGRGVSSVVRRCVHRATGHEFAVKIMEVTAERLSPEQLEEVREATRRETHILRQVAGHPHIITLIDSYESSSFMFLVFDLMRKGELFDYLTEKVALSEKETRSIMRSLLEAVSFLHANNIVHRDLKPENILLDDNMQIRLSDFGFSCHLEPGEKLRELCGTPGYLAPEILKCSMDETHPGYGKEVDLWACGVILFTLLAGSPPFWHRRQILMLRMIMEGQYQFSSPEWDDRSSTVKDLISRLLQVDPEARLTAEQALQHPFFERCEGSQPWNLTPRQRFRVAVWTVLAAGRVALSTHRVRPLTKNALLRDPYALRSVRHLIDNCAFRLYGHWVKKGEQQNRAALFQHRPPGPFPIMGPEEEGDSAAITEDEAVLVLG

[3] = target: Casein kinase I isoform epsilon (Homo sapiens) (UniProt P49674); experiment: Inhibition of human CK1epsilon at 500 nM by HotSpot assay relative to control
[4] = target: Tyrosine-protein kinase CSK (Homo sapiens) (UniProt P41240); experiment: Inhibition of human CSK at 500 nM by HotSpot assay relative to control
[5] = target: Tyrosine-protein kinase Fgr (Homo sapiens) (UniProt P09769); experiment: Inhibition of human FGR at 500 nM by HotSpot assay relative to control
[6] = target: CDK4/Cyclin D3 (Homo sapiens) (UniProt P11802+P30281); experiment: Inhibition of human CDK4/cyclin D3 at 500 nM by HotSpot assay relative to control; type: protein-complex assay
[7] = target: Serine/threonine-protein kinase pim-3 (Homo sapiens) (UniProt Q86V86); experiment: Inhibition of human PIM3 at 500 nM by HotSpot assay relative to control
[8] = target: Serine/threonine-protein kinase 25 (Homo sapiens) (UniProt O00506); experiment: Inhibition of human YSK1 at 500 nM by HotSpot assay relative to control
[9] = target: T2, Tyrosine-protein kinase receptor TYRO3 (Homo sapiens) (UniProt Q06418); experiment: Inhibition of human SKY at 500 nM by HotSpot assay relative to control
T2 sequence (whole entry): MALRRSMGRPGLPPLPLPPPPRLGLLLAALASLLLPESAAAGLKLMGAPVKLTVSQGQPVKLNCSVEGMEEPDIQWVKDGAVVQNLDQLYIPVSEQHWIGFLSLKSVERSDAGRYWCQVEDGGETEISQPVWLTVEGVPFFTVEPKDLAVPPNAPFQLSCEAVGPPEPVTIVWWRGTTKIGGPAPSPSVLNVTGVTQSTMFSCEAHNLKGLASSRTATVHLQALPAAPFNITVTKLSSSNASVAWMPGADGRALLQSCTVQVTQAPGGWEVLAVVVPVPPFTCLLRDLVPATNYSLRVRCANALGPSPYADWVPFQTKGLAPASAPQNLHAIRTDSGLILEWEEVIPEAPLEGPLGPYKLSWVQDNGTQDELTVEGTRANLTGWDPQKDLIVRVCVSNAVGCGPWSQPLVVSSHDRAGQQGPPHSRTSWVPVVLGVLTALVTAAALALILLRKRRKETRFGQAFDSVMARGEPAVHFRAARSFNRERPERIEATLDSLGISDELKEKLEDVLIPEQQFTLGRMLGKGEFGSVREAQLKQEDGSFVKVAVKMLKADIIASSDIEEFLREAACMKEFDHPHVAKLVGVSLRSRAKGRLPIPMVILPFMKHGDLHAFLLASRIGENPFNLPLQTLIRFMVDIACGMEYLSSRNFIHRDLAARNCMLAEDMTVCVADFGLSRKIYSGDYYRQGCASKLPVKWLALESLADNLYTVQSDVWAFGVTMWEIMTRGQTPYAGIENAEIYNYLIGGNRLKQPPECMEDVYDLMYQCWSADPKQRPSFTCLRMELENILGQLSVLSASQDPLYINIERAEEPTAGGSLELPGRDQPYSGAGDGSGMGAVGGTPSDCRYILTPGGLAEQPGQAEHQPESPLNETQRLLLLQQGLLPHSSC

[10] = target: Serine/threonine-protein kinase MARK1 (Homo sapiens) (UniProt Q9P0L2); experiment: Inhibition of human MARK1 at 500 nM by HotSpot assay relative to control
[11] = target: T3, NUAK family SNF1-like kinase 1 (Homo sapiens) (UniProt O60285); experiment: Inhibition of human ARK5 at 500 nM by HotSpot assay relative to control
T3 sequence (whole entry): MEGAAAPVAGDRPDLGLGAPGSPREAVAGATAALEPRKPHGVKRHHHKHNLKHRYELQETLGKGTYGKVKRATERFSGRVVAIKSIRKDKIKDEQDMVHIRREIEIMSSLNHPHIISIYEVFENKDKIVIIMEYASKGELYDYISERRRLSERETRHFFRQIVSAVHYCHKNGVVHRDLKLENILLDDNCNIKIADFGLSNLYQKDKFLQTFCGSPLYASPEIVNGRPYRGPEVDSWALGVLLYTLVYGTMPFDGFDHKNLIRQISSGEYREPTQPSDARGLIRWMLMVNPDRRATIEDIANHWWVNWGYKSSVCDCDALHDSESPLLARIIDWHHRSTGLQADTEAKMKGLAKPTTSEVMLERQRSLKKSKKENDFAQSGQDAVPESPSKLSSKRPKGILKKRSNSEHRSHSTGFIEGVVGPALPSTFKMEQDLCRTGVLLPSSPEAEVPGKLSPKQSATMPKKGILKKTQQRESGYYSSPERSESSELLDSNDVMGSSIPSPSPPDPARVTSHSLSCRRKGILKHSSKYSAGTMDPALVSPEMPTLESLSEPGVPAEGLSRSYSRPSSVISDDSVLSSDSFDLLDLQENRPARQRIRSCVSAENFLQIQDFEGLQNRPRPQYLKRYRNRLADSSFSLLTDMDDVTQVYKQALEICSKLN

[12] = target: STE20-like serine/threonine-protein kinase (Homo sapiens) (UniProt Q9H2G2); experiment: Inhibition of human STK2 at 500 nM by HotSpot assay relative to control
STE20-like serine/threonine-protein kinase (Homo sapiens), sequence (Q9H2G2 whole entry, looked up): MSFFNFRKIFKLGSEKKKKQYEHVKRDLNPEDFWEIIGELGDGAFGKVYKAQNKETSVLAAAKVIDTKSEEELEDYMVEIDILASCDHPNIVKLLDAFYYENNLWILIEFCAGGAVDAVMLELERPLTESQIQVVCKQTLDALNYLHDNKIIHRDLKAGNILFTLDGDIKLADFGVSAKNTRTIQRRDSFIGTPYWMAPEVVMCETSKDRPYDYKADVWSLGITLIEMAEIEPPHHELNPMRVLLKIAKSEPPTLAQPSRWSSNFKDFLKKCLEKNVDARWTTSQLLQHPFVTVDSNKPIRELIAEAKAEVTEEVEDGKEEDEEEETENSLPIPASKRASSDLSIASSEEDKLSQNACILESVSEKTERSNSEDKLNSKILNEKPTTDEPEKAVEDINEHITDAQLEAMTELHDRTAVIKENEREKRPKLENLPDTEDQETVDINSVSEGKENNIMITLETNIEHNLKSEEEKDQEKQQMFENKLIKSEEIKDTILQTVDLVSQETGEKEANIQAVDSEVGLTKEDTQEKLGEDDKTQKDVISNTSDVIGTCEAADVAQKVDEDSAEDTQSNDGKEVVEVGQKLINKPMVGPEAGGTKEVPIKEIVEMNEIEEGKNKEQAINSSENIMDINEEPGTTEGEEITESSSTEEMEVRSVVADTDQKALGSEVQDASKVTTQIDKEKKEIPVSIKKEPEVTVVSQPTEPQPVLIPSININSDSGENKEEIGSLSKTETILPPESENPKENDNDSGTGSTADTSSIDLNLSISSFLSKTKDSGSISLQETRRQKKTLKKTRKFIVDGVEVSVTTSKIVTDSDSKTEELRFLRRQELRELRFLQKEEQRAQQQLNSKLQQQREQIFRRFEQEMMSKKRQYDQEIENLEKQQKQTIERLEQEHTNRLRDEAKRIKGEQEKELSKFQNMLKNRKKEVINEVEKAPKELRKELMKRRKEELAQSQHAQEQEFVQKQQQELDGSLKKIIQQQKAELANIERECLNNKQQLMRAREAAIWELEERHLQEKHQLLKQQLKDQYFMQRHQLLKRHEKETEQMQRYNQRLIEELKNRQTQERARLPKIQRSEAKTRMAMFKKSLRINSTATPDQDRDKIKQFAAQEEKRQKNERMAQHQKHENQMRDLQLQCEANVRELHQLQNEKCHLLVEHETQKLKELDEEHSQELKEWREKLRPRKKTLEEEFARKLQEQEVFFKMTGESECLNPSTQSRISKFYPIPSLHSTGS

Serine/threonine-protein kinase 25 (Homo sapiens), sequence (O00506 whole entry, looked up): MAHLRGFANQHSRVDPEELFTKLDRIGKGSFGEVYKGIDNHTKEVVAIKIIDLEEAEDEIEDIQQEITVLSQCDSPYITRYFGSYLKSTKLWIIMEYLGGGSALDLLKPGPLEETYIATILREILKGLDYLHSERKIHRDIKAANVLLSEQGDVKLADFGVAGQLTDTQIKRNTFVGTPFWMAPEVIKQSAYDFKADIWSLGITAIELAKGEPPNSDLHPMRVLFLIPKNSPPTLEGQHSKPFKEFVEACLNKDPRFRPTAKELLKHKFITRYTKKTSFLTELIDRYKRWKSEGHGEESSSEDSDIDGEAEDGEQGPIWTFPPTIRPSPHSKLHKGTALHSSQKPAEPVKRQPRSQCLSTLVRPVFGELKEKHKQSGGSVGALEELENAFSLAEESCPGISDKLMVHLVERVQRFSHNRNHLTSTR
Serine/threonine-protein kinase MARK1 (Homo sapiens), sequence (Q9P0L2 whole entry, looked up): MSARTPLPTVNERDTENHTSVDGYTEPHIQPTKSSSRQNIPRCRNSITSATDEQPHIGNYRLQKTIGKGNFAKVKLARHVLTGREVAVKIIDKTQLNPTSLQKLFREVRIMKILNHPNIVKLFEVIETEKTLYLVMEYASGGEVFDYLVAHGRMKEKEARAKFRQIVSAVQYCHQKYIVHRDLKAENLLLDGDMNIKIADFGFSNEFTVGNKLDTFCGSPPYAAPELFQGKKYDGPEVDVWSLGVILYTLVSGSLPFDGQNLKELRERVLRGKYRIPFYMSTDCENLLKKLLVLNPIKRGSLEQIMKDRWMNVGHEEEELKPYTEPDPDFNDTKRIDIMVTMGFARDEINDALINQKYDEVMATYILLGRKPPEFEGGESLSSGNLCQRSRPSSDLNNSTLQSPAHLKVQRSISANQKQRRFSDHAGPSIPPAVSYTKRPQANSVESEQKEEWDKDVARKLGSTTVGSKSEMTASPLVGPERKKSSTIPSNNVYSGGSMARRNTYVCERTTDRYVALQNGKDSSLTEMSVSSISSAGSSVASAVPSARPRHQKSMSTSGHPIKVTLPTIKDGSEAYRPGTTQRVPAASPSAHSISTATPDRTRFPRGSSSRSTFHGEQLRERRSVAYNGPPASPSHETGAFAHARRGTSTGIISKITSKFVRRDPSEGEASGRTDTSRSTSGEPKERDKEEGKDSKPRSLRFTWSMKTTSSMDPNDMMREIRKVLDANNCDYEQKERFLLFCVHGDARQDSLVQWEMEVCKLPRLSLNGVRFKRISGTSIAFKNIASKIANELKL
Tyrosine-protein kinase CSK (Homo sapiens), sequence (P41240 2-450 limits assumed): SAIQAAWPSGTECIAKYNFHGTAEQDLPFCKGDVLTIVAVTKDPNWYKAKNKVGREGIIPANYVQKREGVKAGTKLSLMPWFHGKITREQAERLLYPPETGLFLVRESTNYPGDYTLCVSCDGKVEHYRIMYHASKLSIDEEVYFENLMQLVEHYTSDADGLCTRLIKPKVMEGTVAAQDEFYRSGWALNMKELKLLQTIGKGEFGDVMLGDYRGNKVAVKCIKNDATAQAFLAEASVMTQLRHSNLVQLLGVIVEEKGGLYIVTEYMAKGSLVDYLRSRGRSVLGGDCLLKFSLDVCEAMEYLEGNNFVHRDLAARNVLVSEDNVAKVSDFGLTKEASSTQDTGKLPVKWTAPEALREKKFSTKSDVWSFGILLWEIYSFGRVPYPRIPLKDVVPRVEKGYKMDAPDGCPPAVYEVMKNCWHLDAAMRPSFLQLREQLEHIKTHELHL
MAP kinase-activated protein kinase 5 (Homo sapiens), sequence (Q8IW41 whole entry, canonical isoform): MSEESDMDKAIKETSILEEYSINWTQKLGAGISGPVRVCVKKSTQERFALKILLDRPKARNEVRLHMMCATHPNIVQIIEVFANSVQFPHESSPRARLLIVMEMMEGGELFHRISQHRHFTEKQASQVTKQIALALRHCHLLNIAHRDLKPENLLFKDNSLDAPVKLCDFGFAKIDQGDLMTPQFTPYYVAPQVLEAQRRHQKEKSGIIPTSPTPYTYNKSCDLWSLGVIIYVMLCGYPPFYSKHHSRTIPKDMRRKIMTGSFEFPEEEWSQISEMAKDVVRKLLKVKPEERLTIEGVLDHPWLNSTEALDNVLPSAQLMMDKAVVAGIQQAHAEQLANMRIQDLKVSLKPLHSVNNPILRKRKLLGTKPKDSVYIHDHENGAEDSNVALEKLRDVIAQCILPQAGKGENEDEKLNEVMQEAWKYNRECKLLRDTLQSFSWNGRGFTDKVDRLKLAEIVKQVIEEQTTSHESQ
Casein kinase I isoform epsilon (Homo sapiens), sequence (P49674 whole entry, looked up, canonical isoform): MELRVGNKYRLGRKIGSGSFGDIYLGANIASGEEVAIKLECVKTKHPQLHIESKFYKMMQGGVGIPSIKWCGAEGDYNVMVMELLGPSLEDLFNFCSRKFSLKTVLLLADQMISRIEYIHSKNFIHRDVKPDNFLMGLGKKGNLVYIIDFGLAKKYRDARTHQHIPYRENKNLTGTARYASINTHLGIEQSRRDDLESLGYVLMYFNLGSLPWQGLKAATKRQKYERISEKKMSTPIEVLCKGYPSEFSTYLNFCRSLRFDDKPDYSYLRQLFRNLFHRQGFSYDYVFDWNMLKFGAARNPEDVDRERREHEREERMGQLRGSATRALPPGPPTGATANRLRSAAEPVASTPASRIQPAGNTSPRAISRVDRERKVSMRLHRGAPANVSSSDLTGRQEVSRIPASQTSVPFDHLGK
Tyrosine-protein kinase Fgr (Homo sapiens), sequence (P09769 2-529 limits assumed): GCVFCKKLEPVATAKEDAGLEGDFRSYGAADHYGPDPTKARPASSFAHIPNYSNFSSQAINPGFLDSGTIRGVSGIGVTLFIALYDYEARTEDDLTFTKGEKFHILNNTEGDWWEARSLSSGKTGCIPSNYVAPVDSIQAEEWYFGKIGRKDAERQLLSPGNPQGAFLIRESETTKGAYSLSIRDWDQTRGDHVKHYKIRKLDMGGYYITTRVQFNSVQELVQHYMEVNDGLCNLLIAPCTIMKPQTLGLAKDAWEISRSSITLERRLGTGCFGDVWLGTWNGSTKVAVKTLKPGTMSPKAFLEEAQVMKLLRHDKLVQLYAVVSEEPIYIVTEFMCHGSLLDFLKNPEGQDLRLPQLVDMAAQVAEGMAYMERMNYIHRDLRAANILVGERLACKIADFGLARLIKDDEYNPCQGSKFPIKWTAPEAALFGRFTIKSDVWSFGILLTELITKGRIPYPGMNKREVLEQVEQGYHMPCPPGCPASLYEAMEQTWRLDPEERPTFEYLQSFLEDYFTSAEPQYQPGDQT

| Compound | inhibition [1] [%] | inhibition [2] [%] | inhibition [3] [%] | inhibition [4] [%] | inhibition [5] [%] | inhibition [6] [%] | inhibition [7] [%] | inhibition [8] [%] | inhibition [9] [%] | inhibition [10] [%] | inhibition [11] [%] | inhibition [12] [%] |
| --- | --- | --- | --- | --- | --- | --- | --- | --- | --- | --- | --- | --- |
| Oc1n[nH]c2nnc(-c3c(-c4ccccc4)nn4ccccc34)cc12 | 4.74 | 8.79 | 0.54 | -1.06 | -0.49 | -0.94 | -0.71 | 4.81 | 10.1 | 4.47 | 1.9 | 0.54 |
| Nc1n[nH]c2nnc(-c3c(-c4ccccc4)nn4ccccc34)cc12 | 2.31 | 17.4 | 19.1 | 1.98 | 7.1 | -0.36 | -0.43 | 15.8 | 2.41 | 2.04 | 7.47 | 6.01 |
